Source: the supplement of paper PMC10307832

Key:
Test in all cases: relative viability (nuclei count vs DMSO), 5 days (fraction); higher = more cells survive
[1] = compound: C/C(=N\NC(=S)N1CCC1)/C2=CC=CC=N2
How it was run: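 On vehicle-anchored 1536-well plates, lung cancer cell lines held overnight at 37 °C were pinned with five library-drug doses (not always all listed) spaced by √10. With no medium change over 5 days, they were then fixed, permeabilised and Hoechst-stained in one step and imaged at 4×. MetaXpress counted nuclei, and viability is the median across plates of treated-well over vehicle-well nuclei. Acceptance needed control CV below 25% and at least one doubling.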

[2] = compound: C/C(=N\NC(=S)N1CCC1)/C2=CC=CC=N2 + N=C(N)NC(=N)NCCc1ccccc1 [Phenformin] (partner 250 µM)
How it was run: (§1)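 After 5 days of treatment, lung cancer cells in 1536-well plates were fixed and stained in a single step (final 0.05% Triton X-100, 1% formaldehyde, 1 ug/ml Hoechst) and their nuclei counted on 4× images. Treatment had been applied by pin tool the day after seeding as one drug alone or as a fixed anchor-drug dose with five library-drug doses (not always all listed) in √10 steps. Relative viability is the nuclei count of treated wells divided by that of vehicle wells, and values are medians of duplicate plates.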

[3] = compound: C/C(=N\NC(=S)N1CCC1)/C2=CC=CC=N2 + COc1cccc2cc(-c3nc([C@H]4CC[C@H](C(=O)O)CC4)n4ncnc(N)c34)[nH]c12 [OSI-027] (partner 0.5 µM)
How it was run: as §1

[4] = compound: C/C(=N\NC(=S)N1CCC1)/C2=CC=CC=N2 + CC(=O)Nc1cccc(-n2c(=O)n(C3CC3)c(=O)c3c(Nc4ccc(I)cc4F)n(C)c(=O)c(C)c32)c1 [Trametinib] (partner 0.02 µM)
How it was run: as §1

Cell Line	relative viability ([1]; 0.05 µM)	relative viability ([1]; 0.1581 µM)	relative viability ([1]; 0.5 µM)	relative viability ([1]; 1.581 µM)	relative viability ([1]; 5 µM)	relative viability ([2]; first compound 0.05 µM)	relative viability ([2]; first compound 0.1581 µM)	relative viability ([2]; first compound 0.5 µM)	relative viability ([2]; first compound 1.581 µM)	relative viability ([2]; first compound 5 µM)	relative viability ([3]; first compound 0.05 µM)	relative viability ([3]; first compound 0.1581 µM)	relative viability ([3]; first compound 0.5 µM)	relative viability ([3]; first compound 1.581 µM)	relative viability ([3]; first compound 5 µM)	relative viability ([4]; first compound 0.05 µM)	relative viability ([4]; first compound 0.1581 µM)	relative viability ([4]; first compound 0.5 µM)	relative viability ([4]; first compound 1.581 µM)	relative viability ([4]; first compound 5 µM)
201T	0.432	0.443	0.353	0.345	0.309	0.362	0.355	0.343	0.311	0.247	0.402	0.21	0.201	0.166	0.134	0.575	0.713	0.327	0.407	0.283
A549	0.0587	0.0516	0.0603	0.0557	0.0345	0.0324	0.034	0.0226	0.0286	0.0232	–	–	–	–	–	–	–	–	–	–
A-427	0.16	0.173	0.15	0.144	0.156	0.13	0.142	0.134	0.121	0.138	0.172	0.154	0.135	0.165	0.125	0.226	0.215	0.189	0.185	0.178
ABC-1	0.38	0.303	0.245	0.259	0.361	0.196	0.203	0.222	0.202	0.14	0.257	0.191	0.239	0.226	0.2	–	–	–	–	–
BEN	0.278	0.237	0.276	0.23	0.227	0.155	0.16	0.178	0.232	0.201	0.206	0.142	0.166	0.183	0.202	0.341	0.344	0.359	0.3	0.268
CAL-12T	0.197	0.181	0.16	0.149	0.133	0.171	0.15	0.136	0.112	0.101	0.133	0.126	0.145	0.105	0.147	0.0974	0.126	0.163	0.135	0.122
COR-L23	0.148	0.133	0.138	0.113	0.102	0.104	0.102	0.104	0.0877	0.0862	0.116	0.111	0.108	0.0709	0.0853	0.111	0.133	0.124	0.107	0.114
COR-L 105	0.287	0.364	0.342	0.245	0.292	0.198	0.299	0.29	0.196	0.214	0.251	0.329	0.338	0.255	0.248	0.376	0.462	0.377	0.343	0.339
Calu-6	0.118	0.147	0.154	0.12	0.14	–	–	–	–	–	–	–	–	–	–	–	–	–	–	–
ChaGo-K-1	0.204	0.227	0.2	0.18	0.186	0.176	0.194	0.188	0.152	0.174	0.15	0.168	0.177	0.163	0.165	0.147	0.391	0.15	0.133	0.152
EKVX	0.129	0.138	0.118	0.153	0.161	0.14	0.132	0.167	0.161	0.23	0.12	0.122	0.11	0.111	0.146	0.104	0.124	0.114	0.151	0.136
EMC-BAC-2	0.215	0.237	0.219	0.189	0.207	0.156	0.233	0.214	0.211	0.212	0.199	0.22	0.233	0.189	0.209	0.293	0.282	0.246	0.2	0.231
EPLC-272H	0.163	0.161	0.124	0.0926	0.136	0.112	0.13	0.084	0.0614	0.122	0.159	0.13	0.138	0.103	0.112	0.121	0.114	0.114	0.0558	0.0892
H3255	0.316	0.331	0.273	0.254	0.274	0.318	0.333	0.317	0.301	0.346	0.364	0.293	0.25	0.254	0.29	0.29	0.304	0.258	0.295	0.325
HARA	0.193	0.21	0.138	0.143	0.138	0.0726	0.0701	0.0872	0.047	0.0649	0.0966	0.0611	0.0659	0.0562	0.0621	0.322	0.11	0.193	0.109	0.102
HCC-15	0.0583	0.0886	0.0939	0.094	0.0906	0.0651	0.134	0.144	0.0712	0.0989	0.079	0.0907	0.0888	0.0899	0.0898	0.151	0.23	0.117	0.0989	0.0939
HCC-44	0.351	0.279	0.299	0.246	0.24	0.0955	0.14	0.0915	0.153	0.188	0.183	0.221	0.261	0.195	0.297	0.869	0.987	0.409	0.491	0.397
